The test deals with T1, Human SST5 somatostatin receptor (Homo sapiens, UniProt P35346).
T1 construct: expressed in transfected cells; host or cells: HEK-293 EBNA cells (membranes)
The test is described as follows: Filter plate radio-ligand binding assay for SST5 receptor ([125I]SST-14 displacement). Conditions: 3P library; for % SST5 radio-ligand binding displaced at conc 0.001: conc 0.001 μM; for % SST5 radio-ligand binding displaced at conc 0.10: conc 0.10 μM; for % SST5 radio-ligand binding displaced at conc 0.5: conc 0.5 μM; for % SST5 radio-ligand binding displaced at conc 1.0: conc 1.0 μM; for % SST5 radio-ligand binding displaced at conc 10: conc 10 μM; for % SST5 radio-ligand binding displaced at conc 0.25: conc 0.25 μM.

Molecules are shown by their SMILES.

T1 sequence (P35346 whole entry): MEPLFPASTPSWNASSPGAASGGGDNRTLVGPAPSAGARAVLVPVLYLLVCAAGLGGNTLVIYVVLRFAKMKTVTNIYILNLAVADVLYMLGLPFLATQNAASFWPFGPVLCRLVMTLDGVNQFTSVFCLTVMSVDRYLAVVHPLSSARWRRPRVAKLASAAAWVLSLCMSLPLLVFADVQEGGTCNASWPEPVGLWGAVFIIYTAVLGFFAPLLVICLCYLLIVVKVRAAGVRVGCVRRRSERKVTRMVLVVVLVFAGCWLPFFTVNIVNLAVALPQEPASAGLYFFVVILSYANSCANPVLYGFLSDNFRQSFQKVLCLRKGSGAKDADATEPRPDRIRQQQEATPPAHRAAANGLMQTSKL

`COCC1OC(OCc2ccc3ccccc3c2)C(NC(=O)CCCN)C(OCc2ccc(Cl)cc2)C1O` (mixture of isomers) [Compound 127]: the “% SST5 radio-ligand binding displaced at conc 0.001” value is given as “− (% SST5 radio-ligand binding displaced at cone (μM) −<40%)”, the “% SST5 radio-ligand binding displaced at conc 0.10” value is “− (% SST5 radio-ligand binding displaced at cone (μM) −<40%)”, the “% SST5 radio-ligand binding displaced at conc 0.5” value was “++ (% SST5 radio-ligand binding displaced at conc (μM) >60%)” and the “% SST5 radio-ligand binding displaced at conc 1.0” value is “++ (% SST5 radio-ligand binding displaced at conc (μM) >60%)”. Moreover, the “% SST5 radio-ligand binding displaced at conc 10” value is reported as “++ (% SST5 radio-ligand binding displaced at conc (μM) >60%)”.

With `COCC1OC(OCc2ccc3ccccc3c2)C(NC(=O)CCCN)C(OCc2ccc(-c3ccccc3)cc2)C1O` (mixture of isomers) [Compound 128], the “% SST5 radio-ligand binding displaced at conc 0.001” value is “− (% SST5 radio-ligand binding displaced at cone (μM) −<40%)”, the “% SST5 radio-ligand binding displaced at conc 0.10” value is recorded as “− (% SST5 radio-ligand binding displaced at cone (μM) −<40%)”, the “% SST5 radio-ligand binding displaced at conc 0.25” value was “− (% SST5 radio-ligand binding displaced at cone (μM) −<40%)” and the “% SST5 radio-ligand binding displaced at conc 0.5” value is “++ (% SST5 radio-ligand binding displaced at conc (μM) >60%)”. Moreover, the “% SST5 radio-ligand binding displaced at conc 1.0” value is on record as “+ (% SST5 radio-ligand binding displaced at cone (μM) 60>+>40%)” and the “% SST5 radio-ligand binding displaced at conc 10” value is given as “++ (% SST5 radio-ligand binding displaced at conc (μM) >60%)”.

`COCC1OC(OCc2ccc3ccccc3c2)C(NC(=O)CCCN)C(OCc2ccc3ccccc3c2)C1O` (mixture of isomers) [Compound 129]: the “% SST5 radio-ligand binding displaced at conc 0.001” value is reported as “− (% SST5 radio-ligand binding displaced at cone (μM) −<40%)”, the “% SST5 radio-ligand binding displaced at conc 0.10” value was “+ (% SST5 radio-ligand binding displaced at cone (μM) 60>+>40%)”, the “% SST5 radio-ligand binding displaced at conc 0.25” value is given as “− (% SST5 radio-ligand binding displaced at cone (μM) −<40%)” and the “% SST5 radio-ligand binding displaced at conc 1.0” value is on record as “++ (% SST5 radio-ligand binding displaced at conc (μM) >60%)”. Besides, the “% SST5 radio-ligand binding displaced at conc 10” value is recorded as “++ (% SST5 radio-ligand binding displaced at conc (μM) >60%)”.

Take `COCC1OC(OCc2ccc3ccccc3c2)C(NC(=O)CCCN)C(OCc2cccc(O)c2)C1O` (mixture of isomers) [Compound 130]: the “% SST5 radio-ligand binding displaced at conc 10” value is recorded as “++ (% SST5 radio-ligand binding displaced at conc (μM) >60%)”.

For the molecule `COCC1OC(OCc2ccc3ccccc3c2)C(NC(=O)CCCN)C(OCc2ccc(-c3ccccc3)cc2)C1O` (mixture of isomers) [Compound 131], the “% SST5 radio-ligand binding displaced at conc 10” value is listed as “++ (% SST5 radio-ligand binding displaced at conc (μM) >60%)”.

With `COCC1OC(OCc2ccc3ccccc3c2)C(NC(=O)CCCN)C(OCc2ccc3ccccc3c2)C1O` (mixture of isomers) [Compound 132], the “% SST5 radio-ligand binding displaced at conc 10” value is reported as “++ (% SST5 radio-ligand binding displaced at conc (μM) >60%)”.

In the case of `COCC1OC(OCc2ccc3ccccc3c2)C(NC(=O)CCCN)C(OCc2ccc(Cl)cc2)C1O` (mixture of isomers) [Compound 133], the “% SST5 radio-ligand binding displaced at conc 10” value is on record as “++ (% SST5 radio-ligand binding displaced at conc (μM) >60%)”.

As to `COCC1OC(OCc2ccc(Cl)cc2)C(NC(=O)CN)C(OCc2ccccc2)C1O` (mixture of isomers) [Compound 160], the “% SST5 radio-ligand binding displaced at conc 0.001” value is on record as “− (% SST5 radio-ligand binding displaced at cone (μM) −<40%)”, the “% SST5 radio-ligand binding displaced at conc 0.10” value is “− (% SST5 radio-ligand binding displaced at cone (μM) −<40%)”, the “% SST5 radio-ligand binding displaced at conc 0.5” value is on record as “− (% SST5 radio-ligand binding displaced at cone (μM) −<40%)” and the “% SST5 radio-ligand binding displaced at conc 1.0” value is on record as “− (% SST5 radio-ligand binding displaced at cone (μM) −<40%)”. Besides, the “% SST5 radio-ligand binding displaced at conc 10” value is listed as “− (% SST5 radio-ligand binding displaced at cone (μM) −<40%)”.

As to `COCC1OC(OCc2ccc(Cl)cc2)C(NC(=O)CN)C(OCc2ccc(Cl)cc2)C1O` (mixture of isomers) [Compound 161], the “% SST5 radio-ligand binding displaced at conc 0.001” value is on record as “− (% SST5 radio-ligand binding displaced at cone (μM) −<40%)”, the “% SST5 radio-ligand binding displaced at conc 0.10” value is listed as “− (% SST5 radio-ligand binding displaced at cone (μM) −<40%)”, the “% SST5 radio-ligand binding displaced at conc 0.5” value is reported as “− (% SST5 radio-ligand binding displaced at cone (μM) −<40%)” and the “% SST5 radio-ligand binding displaced at conc 1.0” value is listed as “− (% SST5 radio-ligand binding displaced at cone (μM) −<40%)”. The “% SST5 radio-ligand binding displaced at conc 10” value is “++ (% SST5 radio-ligand binding displaced at conc (μM) >60%)”.

With `COCC1OC(OCc2ccc(Cl)cc2)C(NC(=O)CN)C(OCc2ccc(-c3ccccc3)cc2)C1O` (mixture of isomers) [Compound 162], the “% SST5 radio-ligand binding displaced at conc 0.001” value is “− (% SST5 radio-ligand binding displaced at cone (μM) −<40%)”, the “% SST5 radio-ligand binding displaced at conc 0.10” value was “− (% SST5 radio-ligand binding displaced at cone (μM) −<40%)”, the “% SST5 radio-ligand binding displaced at conc 0.25” value is reported as “− (% SST5 radio-ligand binding displaced at cone (μM) −<40%)” and the “% SST5 radio-ligand binding displaced at conc 0.5” value was “− (% SST5 radio-ligand binding displaced at cone (μM) −<40%)”. For the same molecule, the “% SST5 radio-ligand binding displaced at conc 1.0” value is given as “− (% SST5 radio-ligand binding displaced at cone (μM) −<40%)” and the “% SST5 radio-ligand binding displaced at conc 10” value was “+ (% SST5 radio-ligand binding displaced at cone (μM) 60>+>40%)”.

In the case of `COCC1OC(OCc2ccc(Cl)cc2)C(NC(=O)CN)C(OCc2ccc3ccccc3c2)C1O` (mixture of isomers) [Compound 163], the “% SST5 radio-ligand binding displaced at conc 0.001” value is “− (% SST5 radio-ligand binding displaced at cone (μM) −<40%)”, the “% SST5 radio-ligand binding displaced at conc 0.10” value is reported as “− (% SST5 radio-ligand binding displaced at cone (μM) −<40%)”, the “% SST5 radio-ligand binding displaced at conc 0.5” value is on record as “− (% SST5 radio-ligand binding displaced at cone (μM) −<40%)” and the “% SST5 radio-ligand binding displaced at conc 1.0” value is on record as “− (% SST5 radio-ligand binding displaced at cone (μM) −<40%)”. Moreover, the “% SST5 radio-ligand binding displaced at conc 10” value is on record as “++ (% SST5 radio-ligand binding displaced at conc (μM) >60%)”.

In the case of `COC1C(O)C(COCc2ccc3ccccc3c2)OC(OCc2ccc(Cl)cc2)C1NC(=O)C1CCCN1` (mixture of isomers) [Compound 165], the “% SST5 radio-ligand binding displaced at conc 0.5” value is reported as “− (% SST5 radio-ligand binding displaced at cone (μM) −<40%)” and the “% SST5 radio-ligand binding displaced at conc 10” value is “++ (% SST5 radio-ligand binding displaced at conc (μM) >60%)”.

On to `COC1C(O)C(COCc2ccc3ccccc3c2)OC(OCc2ccc(Cl)cc2)C1NC(=O)C1CCCN1` (mixture of isomers) [Compound 167], for which the “% SST5 radio-ligand binding displaced at conc 0.5” value is on record as “++ (% SST5 radio-ligand binding displaced at conc (μM) >60%)” and the “% SST5 radio-ligand binding displaced at conc 10” value is “++ (% SST5 radio-ligand binding displaced at conc (μM) >60%)”.

On to `COCC1OC(OCc2ccc(Cl)cc2)C(NC(=O)CN)C(OCc2ccc(-c3ccccc3)cc2)C1O` (mixture of isomers) [Compound 173], for which the “% SST5 radio-ligand binding displaced at conc 0.25” value is recorded as “− (% SST5 radio-ligand binding displaced at cone (μM) −<40%)” and the “% SST5 radio-ligand binding displaced at conc 1.0” value is reported as “− (% SST5 radio-ligand binding displaced at cone (μM) −<40%)”.

In the case of `COCC1OC(OCc2ccc(Cl)cc2)C(NC(=O)CN)C(OCc2ccc3ccccc3c2)C1O` (mixture of isomers) [Compound 174], the “% SST5 radio-ligand binding displaced at conc 0.25” value was “− (% SST5 radio-ligand binding displaced at cone (μM) −<40%)” and the “% SST5 radio-ligand binding displaced at conc 1.0” value is recorded as “− (% SST5 radio-ligand binding displaced at cone (μM) −<40%)”.

Regarding `COCC1OC(OCc2ccc(Cl)cc2)C(NC(=O)CN)C(OCc2ccc3ccccc3c2)C1O` (mixture of isomers) [Compound 175], the “% SST5 radio-ligand binding displaced at conc 0.25” value is “− (% SST5 radio-ligand binding displaced at cone (μM) −<40%)” and the “% SST5 radio-ligand binding displaced at conc 1.0” value is “− (% SST5 radio-ligand binding displaced at cone (μM) −<40%)”.

Turning to `COC1C(O)C(COCc2ccccc2)OC(OCc2ccc(Cl)cc2)C1NC(=O)CN` (mixture of isomers) [Compound 176], the “% SST5 radio-ligand binding displaced at conc 0.25” value was “− (% SST5 radio-ligand binding displaced at cone (μM) −<40%)” and the “% SST5 radio-ligand binding displaced at conc 1.0” value is given as “− (% SST5 radio-ligand binding displaced at cone (μM) −<40%)”.

On to `COC1C(O)C(COCc2ccc(Cl)cc2)OC(OCc2ccc(Cl)cc2)C1NC(=O)CN` (mixture of isomers) [Compound 177], for which the “% SST5 radio-ligand binding displaced at conc 0.25” value was “− (% SST5 radio-ligand binding displaced at cone (μM) −<40%)” and the “% SST5 radio-ligand binding displaced at conc 1.0” value is listed as “− (% SST5 radio-ligand binding displaced at cone (μM) −<40%)”.

In the case of `COC1C(O)C(COCc2ccc(-c3ccccc3)cc2)OC(OCc2ccc(Cl)cc2)C1NC(=O)CN` (mixture of isomers) [Compound 178], the “% SST5 radio-ligand binding displaced at conc 0.25” value is “− (% SST5 radio-ligand binding displaced at cone (μM) −<40%)” and the “% SST5 radio-ligand binding displaced at conc 1.0” value is “− (% SST5 radio-ligand binding displaced at cone (μM) −<40%)”.

`COC1C(O)C(COCc2ccc3ccccc3c2)OC(OCc2ccc(Cl)cc2)C1NC(=O)CN` (mixture of isomers) [Compound 179]: the “% SST5 radio-ligand binding displaced at conc 0.25” value is given as “− (% SST5 radio-ligand binding displaced at cone (μM) −<40%)” and the “% SST5 radio-ligand binding displaced at conc 1.0” value is given as “− (% SST5 radio-ligand binding displaced at cone (μM) −<40%)”.

Consider `COC[C@H]1OC(OCc2ccc3ccccc3c2)[C@H](NC(=O)CCN)[C@@H](OCc2ccccc2)[C@@H]1O` (single isomer, unassigned) [Compound 87], for which the “% SST5 radio-ligand binding displaced at conc 0.25” value is reported as “− (% SST5 radio-ligand binding displaced at cone (μM) −<40%)” and the “% SST5 radio-ligand binding displaced at conc 1.0” value is listed as “− (% SST5 radio-ligand binding displaced at cone (μM) −<40%)”.

With `COC[C@H]1OC(OCc2ccc3ccccc3c2)[C@H](NC(=O)CCN)[C@@H](OCc2ccccc2)[C@@H]1O` (single isomer, unassigned) [Compound 88], the “% SST5 radio-ligand binding displaced at conc 0.25” value is on record as “− (% SST5 radio-ligand binding displaced at cone (μM) −<40%)” and the “% SST5 radio-ligand binding displaced at conc 1.0” value is on record as “− (% SST5 radio-ligand binding displaced at cone (μM) −<40%)”.
